The values that follow come from PubChem BioAssay AID588786 (The Scripps Research Institute Molecular Screening Center, 2011).

Active and inactive are the calls of the source. No rule for the calls is given here.

In the assay the target is SARS coronavirus 3C-like protease (3CLpro). Kind of assay: SARS 3CLpro protease inhibitor potency, late-stage follow-up, biochemical, fluorescence, dose response, set 4 (AID 588786). As to conditions: recombinant 3CLpro, fluorogenic peptide cleavage.

As for `CC(C)(C)c1ccc(N(Cc2cccnc2)C(=O)c2cnc[nH]2)cc1`, the IC50 entry is “inactive”.

Consider `CC(C)(C)NC(=O)C(c1cccnc1)N(C(=O)c1ccco1)c1ccc(-c2cncnc2)cc1` (stereo not given), for which the half-maximal inhibitory concentration (IC50) is 4.5 µM.

For `CC(C)(C)NC(=O)C(c1cccnc1)N(C(=O)c1ccco1)c1ccc(-c2cccc(F)c2F)cc1` (stereo not given), the IC50 is 3.2 µM.

Turning to `CC(C)(C)NC(=O)C(c1cccnc1)N(C(=O)c1ccco1)c1ccc(-c2cccn2C(=O)OC(C)(C)C)cc1` (stereo not given), the IC50 entry was “inactive”.

Consider `Cc1noc(C)c1-c1ccc(N(C(=O)c2ccco2)C(C(=O)NC(C)(C)C)c2cccnc2)cc1` (stereo not given), for which the IC50 result was “inactive”.

`CC(C)(C)NC(=O)C(c1cccnc1)N(C(=O)c1ccco1)c1ccc(OCc2ccccc2)cc1` (stereo not given): the IC50 entry is “inactive”.

Regarding `CC(C)(C)NC(=O)C(c1cccnc1)N(C(=O)c1ccco1)c1ccc(-c2ccccc2)cc1` (stereo not given), the IC50 is 2.3 µM.

As for `CC(C)(C)NC(=O)C(c1cccnc1)N(C(=O)c1ccco1)c1ccc(I)cc1` (stereo not given), the IC50 result is “inactive”.

`CC(C)(C)NC(=O)C(c1cccnc1)N(C(=O)c1ccco1)c1ccc(-c2cccnc2)cc1` (stereo not given): the IC50 entry was “inactive”.

With `COc1cccc(Oc2ccc(N(C(=O)c3ccco3)C(C(=O)NC(C)(C)C)c3cccnc3)cc2)c1` (stereo not given), the IC50 entry was “inactive”.
